{
  "source": "patent US10188695B2",
  "about": "“Calcineurin inhibitors for use in the treatment of lesional vestibular disorders” (Institut National De La Santé Et De La Recherche Médicale, priority 2012, dated 2019)",
  "test_system": "excitotoxically induced lasting vestibular deficits",
  "assay": "Kainic acid excitotoxic vestibular lesion in rats, spontaneous nystagmus by infra-red videonystagmography (FK-506 treatment)",
  "format": "in vivo, rat",
  "settings": "t=24 h",
  "procedure": "Two inverted 3 mm bolts partially encased in dental acrylic were surgically fixed to the skull of female Long-Evans rats under deep ketamine-xylazine anesthesia using self-tapping surgical screws and cyanoacrylate. Each animal was allowed to recover for 1 week before experiencing 4 training sessions with head fixation (5-10 min) of increasing duration in the week preceding the experiments.\nUnder visual control using a surgical microscope, each rat received transtympanic injections of 50 μL 15 mM kainic acid in physiological serum with 10 mg/mL benzyl alcohol at t=0 h and 25 μL 15 mM kanic acid in physiological serum with 10 mg/mL benzyl alcohol at t=2 h.\nAt t=1 h the behaviorally associated vestibular deficits of each transtympanically injected animal was determined using 5 classical criteria each scored on a 0-4 scale: Circling, head-bobbing, degree of head-tilt, tail-hanging reflex deficit and air-righting reflex deficit. […]\nSpontaneous eye-movements were recorded at t=1 h and t=24 h in the dark using an ISCAN ETL-200 infra-red videooculography system under head-fixed conditions. […]\nThe spontaneous nystagmus frequency in videooculography traces recorded at t=1 h (pre-treatment) and t=24 h (chronic deficit) was determined using custom routines written in MatLab R2011b (The Mathworks, Natick, Mass.). […]",
  "data": [
    {"smiles": "C=CC[C@@H]1/C=C(\\C)C[C@H](C)C[C@H](OC)[C@H]2O[C@@](O)(C(=O)C(=O)N3CCCC[C@H]3C(=O)O[C@H](/C(C)=C/[C@@H]3CC[C@@H](O)[C@H](OC)C3)[C@H](C)[C@@H](O)CC1=O)[C@H](C)C[C@@H]2OC", "note": "[FK-506, tacrolimus]", "values": [
      {"measurement": "normalized chronic spontaneous nystagmus frequency", "setting": "normalized to group mean at t=1 h, single i.p. injection 2.5 mg/kg at t=1 h, Long-Evans rats, in the dark", "result": "26.9±11.8", "unit": "%"},
      {"measurement": "reduction of lasting vestibular deficits (spontaneous nystagmus in the dark) vs sham", "setting": "single i.p. injection 2.5 mg/kg, p=0.014", "result": 43, "unit": "%"}
    ]}
  ]
}
